The values below come from patent publication US10653693B2, “PRMT5 inhibitors and uses thereof” (Epizyme, Inc., priority 2014, dated 2020).

The test system of experiment [1] is Z-138 cells overexpressing full length (FL) MDM4. As to the kind of experiment: Cell cycle analysis of transduced Z138 cell lines. The format is cell-based, Human. The note with it: 50 nM or 500 nM; 2, 3, or 4 days. The procedure: 1×10^6 Z138 cells were seeded in a 6-well tissue culture dish in a volume of 3 mL IMDM+10% horse serum per well. Lentiviruses (MDM4 or EGFP in pLEX vector) were prepared as previously described or purchased from Santa Cruz Biotechnology (cat. # sc-29435-V and sc-108080 for p53 shRNA or scrambled shRNA lentiviruses, respectively). Lentiviral particles were added to seeded cells at […] and supplemented with polybrene at 8 μg/mL. 6-well plates were sealed with Parafilm and spun at 1000×g for 90 minutes at 37° C. for lentiviral treatment. The contents of each well were then collected into separate 15 mL conical tubes and spun at 1000×g for 5 minutes. Supernatant (containing lentivirus and polybrene) was discarded and the cell pellet was resuspended in 3 mL of IMDM+10% horse serum. […]
Transduction efficiency was evaluated for EGFP-transduced cells using fluorescence microscopy. […]
Cells were seeded at 250,000 cells/well in 6-well tissue culture dishes in a volume of 3 mL IMDM+10% horse serum (supplemented with 0.5 μg/mL puromycin for transduced cell lines). […] Pellets were frozen at −80° C. until ready to process. […]
Samples were processed by FACS on a Becton Dickinson FACSCalibur machine. The percentage of cells in each cell cycle stage was determined using the cell cycle function on the gated single cell population with FlowJo V10 software.

Experiment [2] relates to MDM4 splicing in Z138 cells. Put plainly: MDM4 splicing analysis (PCR). The experiment is classed as cell-based, Human. The settings on record: Z138 mantle cell lymphoma cells. The procedure: Z138 cells were seeded in 10 cm tissue culture dishes at a density of approximately 3×10^6 cells per dish in a volume of 10 mL IMDM+10% horse serum media. Cells were treated with 200 nM or 1 μM of compound at 0.5% DMSO for 1, 2, or 3 days. Cell pellets were harvested by washing once with PBS, […], centrifuging at 1000×g for 5 minutes, then storing at −80° C. until ready to process.
RNA was extracted from cell pellets. First, pellets were thawed on ice and then quickly resuspended in 500 μL Trizol reagent. Samples were then incubated 2-3 minutes at room temperature and vortexed for 30 sec to completely homogenize the lysate. 50 μL of water and 50 μL of chloroform were added to each Trizol-cell mixture, then each sample was vortexed for 30 sec to mix completely. Samples were loaded onto MaXtract High Density tubes and spun at 14,000 RPM for 5 minutes. The clear supernatant (aqueous phase) from each tube was transferred to a new 2 mL tube and 2× volume of freshly prepared 70% ethanol was added to each sample. Samples were loaded onto RNeasy spin columns (part of Qiagen RNeasy Mini kit). Columns were centrifuged at 9000×g for 15 sec and flow-through was discarded. 350 μL Buffer RW1 was added to each column and samples were centrifuged at […] for 15 sec and flow-through was discarded. […] RNA concentration was analyzed on a Nanodrop. […]

For `O=C(NC[C@H](O)CN1CCc2ccccc2C1)c1ccnc(NC2CCC2)c1` [Formula C], in experiment [1], the “sensitivity of cells overexpressing full length (FL) MDM4 to PRMT5 inhibition” value is reported as “less sensitive”. For the same molecule, the MDM4 splicing entry in experiment [2] is given as “attenuates”.
